The text below walks through data of PubChem BioAssay (NCI).

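Results reflect a 48-hour exposure of cells in 96-well plates to compound at five concentrations. The concentration for 50% growth inhibition is given as GI50. Definition used: TGI = concentration required for complete inhibition of growth.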

Common to all, as to experiment: NCI tumour cell line growth inhibition, 48 h
In test [1] the test system is LXFL 529 NSCLC.
In test [2] the test system is OVCAR-4 ovarian.
Test [3] concerns OVCAR-3 ovarian.
Test [4] has as its system A549 NSCLC.
The subject of test [5] is CCRF-CEM leukemia.
For test [6], the system named is HOP-62 NSCLC.
Test [7] relates to SF-268 CNS.
Test [8] deals with M19-MEL melanoma.
The subject of test [9] is SW-620 colon.
Test [10] deals with UO-31 renal.

In the case of `CN=S(=O)(C[C@]1(O)CC2OC1C1OC(C)(C)OC21)c1ccccc1` (stereo partly specified), the TGI in test [1], in test [2], in [3], in test [4], in test [5] and in test [6] was more than 100 µM each time. The TGI in test [7], in [8] and in [9] was more than 100 µM throughout.

As for `CCC[CH2][Sn]([CH2]CCC)([S]C1=NCCS1)[S]C1=NCCS1`, the GI50 in test [1] is 0.0423 µM; in test [2], 0.964 µM; in [3], 0.563 µM; in test [4] it was 1.85 µM; in test [5], 0.0231 µM; in test [6] it was 2.1 µM. In addition, the GI50 in test [7] is 0.254 µM; in test [8] it was 0.268 µM; in test [10], 1.13 µM; in test [9], 0.145 µM. Also, the TGI is 0.169 µM in test [1]; 2.24 µM in [2]; 1.87 µM in [3]; 3.55 µM in test [4]; 0.226 µM in [5]; 3.55 µM in test [6]. In addition, the TGI came to 0.908 µM in test [7], 1.45 µM in test [8], 2.51 µM in test [10] and 0.441 µM in test [9].

In the case of `CCC(=C(c1ccc(OCc2ccccc2)cc1)c1ccc(OCc2ccccc2)cc1)c1ccc(OC)cc1`, the TGI in [1], in [2], in test [3], in test [4], in [5] and in test [6] was more than 100 µM in each case. Further, the TGI in test [7], in [8], in test [10] and in test [9] was more than 100 µM in each case.

Regarding `C=CCN(N=O)C(=O)N(CCC)CCCCC(NC(C)=O)C(=O)NCc1ccccc1` (stereo unspecified), the TGI in test [1], in test [2], in test [3], in [4], in test [5] and in [6] was more than 100 µM each time. The TGI in test [7], in test [8], in test [10] and in test [9] was more than 100 µM in each case.

In the case of `O=C(CC1(O)C(=O)Nc2c(Cl)cc(Cl)cc21)c1ccc2ccccc2c1` (stereo unspecified), the TGI was 21.3 µM in test [1]; 26.4 µM in test [2]; 18.6 µM in test [3]; 18.2 µM in test [4]; 39 µM in test [5]; 20.8 µM in [6]. For the same molecule, the TGI in test [7] worked out at 31.8 µM; in test [8], 16.3 µM; in test [10] it was 24.5 µM; in test [9], 14.7 µM.

For `COC(=O)C1C(=O)O[C@@H](c2ccc(OC)cc2OC)C1C(=O)OC` (stereo partly specified), the TGI in [1], in [2], in test [3], in test [4], in [5] and in test [6] was more than 100 µM throughout. The TGI in [7], in [8], in test [10] and in test [9] was more than 100 µM each time.

Regarding `O=C(CC(=O)C(F)(F)F)c1csc2ccccc12`, the TGI in test [1] is more than 100 µM; in test [3], more than 100 µM; in test [4], more than 100 µM; in test [5], more than 100 µM; in [6], 81.1 µM; in test [7], more than 100 µM. In addition, the TGI in test [8], in test [10] and in test [9] was more than 100 µM each time.

Take `COc1ccccc1NC(=O)C1=C(C)NC(C)=C(C(=O)Nc2ccccc2OC)C1c1ccccc1OC`: the TGI in [1], in [2], in test [3], in test [4], in [5] and in test [6] was more than 100 µM in each case. For the same molecule, the TGI in test [7], in [8], in test [10] and in test [9] was more than 100 µM throughout.

For the molecule `CCOC(=O)C1=C(C)N(NC(=O)c2ccccc2)C2(O)CCCC12C(=O)OCC` (stereo unspecified), the TGI in test [1], in test [2], in test [3], in [4], in [6] and in test [7] was more than 100 µM in each case. Moreover, the TGI in [8], in test [10] and in [9] was more than 100 µM throughout.

`CC1C2=CC=C(O2)C(C)(C)C2=CC=C(O2)C(C)(C)C2=CC=C(O2)C(C)(C)C2=CC=C1O2`: the TGI in [1], in test [2], in test [4], in [5], in test [6] and in test [7] was more than 100 µM in each case. The TGI in test [8] and in test [9] was more than 100 µM throughout.

`Cc1c(Cl)ccc2c1NC(=O)C2(O)C1Cc2ccccc2C1=O` (stereo unspecified): the TGI in test [1], in test [2], in test [3], in [4], in [5] and in test [6] was more than 100 µM throughout. The TGI in test [7], in [8], in test [10] and in [9] was more than 100 µM in each case.

Regarding `CCCCCCCCCC(=O)OCC1OC(n2cc(F)c(=O)[nH]c2=O)C(N)C(OC(=O)CCCCCCCCC)C1O` (stereo unspecified), the TGI in [1] is 30.2 µM; in test [2], 31 µM; in test [3], 32.7 µM; in [4], 34.1 µM; in test [5] it was 50.4 µM; in test [6] it was more than 100 µM. Further, the TGI in test [7] is 40.2 µM; in test [8], 31.2 µM; in test [10], 54.9 µM; in [9], 31.8 µM.

Turning to `COc1ccc(OC)c2cc(C3(C)SCCCS3)ccc12`, the TGI in [1], in test [2], in [3], in test [4], in test [5] and in test [6] was more than 100 µM each time. Besides, the TGI in test [7], in test [8], in [10] and in test [9] was more than 100 µM in each case.

For the molecule `Cc1ccc2[nH]c(=O)c(C(C#N)c3ccccc3)nc2c1` (stereo unspecified), the TGI in [1], in test [2], in test [3], in test [4], in test [5] and in test [6] was more than 100 µM each time. Further, the values for the TGI in [7], in test [10] and in test [9] were more than 100 µM, 69.9 µM and more than 100 µM, respectively.

Take `Cc1ccc(C2=NO[C@@H]3C(=O)N(c4ccc(Cc5ccc(N6C(=O)[C@H]7C(c8ccc(C)cc8)=NO[C@H]7C6=O)cc5)cc4)C(=O)[C@H]23)cc1`: the TGI in [1], in test [2], in [3], in test [4], in test [5] and in [6] was more than 100 µM in each case. Moreover, the TGI in [7], in test [8], in test [10] and in test [9] was more than 100 µM in each case.

On to `CCN(CC)c1ccc2c(c1)N=C1N=CC=CN1C2(c1ccc(N(C)C)cc1)c1ccc(N(C)C)cc1`, for which the TGI in [1] worked out at 12.3 µM; in test [3], 6.54 µM; in test [4] it was 28 µM; in test [5], 23.5 µM; in test [6], 24.3 µM; in test [7] it was 27.3 µM. Besides, the figures for the TGI in [8] and in test [10] were 19.3 µM and 22 µM, respectively.

For `O=C(O)/C(Cl)=C(\Cl)C(=O)Nc1ccccc1`, the TGI in [1], in [2], in test [3], in [4], in [5] and in [6] was more than 100 µM in each case. The TGI in [7], in [8], in test [10] and in [9] was more than 100 µM throughout.

For `COC(=O)C(=O)C(C(=O)C(=O)Nc1cc([N+](=O)[O-])ccc1[N+](=O)[O-])c1nc2ccc(C(=O)c3ccccc3)cc2[nH]c1=O` (stereo unspecified), the TGI in [1] was 57.9 µM; in [2] it was more than 100 µM; in [3] it was more than 100 µM; in test [4] it was more than 100 µM; in [5], 83.4 µM; in test [6] it was more than 100 µM. In addition, the TGI was more than 100 µM in test [7], more than 100 µM in test [8], 67.5 µM in [10] and more than 100 µM in test [9].

Take `CSC(=S)NNC(=O)c1ccncc1`: the TGI in test [1] is 29.3 µM; in [3] it was 51.3 µM; in test [4], more than 100 µM; in test [5], 43.1 µM; in test [6], 70.2 µM; in [7] it was 63.3 µM. The TGI in test [8] was determined as 35.8 µM; in test [10] it was 31.6 µM; in test [9], 23.6 µM.

In the case of `CC1OC(O)CC(OC(=O)c2ccccc2)C1OC(=O)c1ccccc1` (stereo unspecified), the TGI in [1] is 29.8 µM; in test [2], 28.8 µM; in test [3] it was 33.4 µM; in [4], more than 100 µM; in test [5], 38.2 µM; in [6] it was more than 100 µM. Also, the TGI in test [7] was found to be 30 µM; in [8] it was 31.6 µM; in test [9], 26.7 µM.

For the molecule `COC(=O)C1=CC2OC1(C)C1(CC1)C2=O` (stereo unspecified), the TGI was 32.9 µM in test [1]; 24 µM in [2]; 31.2 µM in [3]; 70 µM in test [4]; 23.2 µM in test [5]; more than 100 µM in test [6]. The TGI worked out at 43.3 µM in test [7], 51.7 µM in [8], 50 µM in [10] and 34 µM in [9].

Turning to `O=C1c2ccccc2C(=O)c2nc(-c3ccccc3)c(-c3ccccc3)nc21`, the TGI was more than 100 µM in [1]; more than 66.9 µM in test [2]; 13.2 µM in [3]; more than 84.2 µM in test [4]; more than 100 µM in test [5]; more than 100 µM in [6]. Also, the TGI is more than 100 µM in test [7], 2.02 µM in test [8], more than 100 µM in test [10] and more than 100 µM in test [9].

`CC12CC3CC(C)(C1)CC(N=[N+]=[N-])(C3)C2`: the TGI in [1], in test [2], in test [3], in [4], in [5] and in [6] was more than 100 µM in each case. Moreover, the TGI in test [7], in test [8], in [10] and in test [9] was more than 100 µM throughout.

`COc1ccc2c(c1)[n+]([O-])c(-c1nc3ccccc3s1)c(N)[n+]2[O-]`: the TGI in test [1], in test [2], in [3], in [4], in [6] and in test [8] was more than 100 µM in each case. Moreover, the TGI in test [10] and in [9] was more than 100 µM in each case.

Turning to `CNC1C(O)CC(OC2C/C=C(\C)C/C(C)=C/C=C/CCC(C)CNC(=O)/C=C/C=C/C2C)OC1C` (stereo unspecified), the TGI in test [1] was determined as 0.308 µM; in test [2], 0.668 µM; in test [3] it was 1.78 µM; in [5] it was 0.758 µM; in test [7] it was 1.78 µM; in test [8] it was 1.68 µM. In addition, the TGI in [10] is 5.85 µM; in test [9] it was 0.261 µM.
